Laboratory results as given in ChEMBL document CHEMBL1130220, “Synthesis of willardiine and 6-azawillardiine analogs: pharmacological characterization on cloned homomeric human AMPA and kainate receptor subtypes” (J Med Chem, 1997).

Molecular target: Glutamate receptor 1 (Rattus norvegicus, UniProt P19490)
Test: Potency on Ionotropic glutamate receptor AMPA in hippocampal neurons
Type: functional, tissue-based, Hippocampus

Chain of Glutamate receptor 1 (Rattus norvegicus, UniProt P19490) (P19490 whole entry): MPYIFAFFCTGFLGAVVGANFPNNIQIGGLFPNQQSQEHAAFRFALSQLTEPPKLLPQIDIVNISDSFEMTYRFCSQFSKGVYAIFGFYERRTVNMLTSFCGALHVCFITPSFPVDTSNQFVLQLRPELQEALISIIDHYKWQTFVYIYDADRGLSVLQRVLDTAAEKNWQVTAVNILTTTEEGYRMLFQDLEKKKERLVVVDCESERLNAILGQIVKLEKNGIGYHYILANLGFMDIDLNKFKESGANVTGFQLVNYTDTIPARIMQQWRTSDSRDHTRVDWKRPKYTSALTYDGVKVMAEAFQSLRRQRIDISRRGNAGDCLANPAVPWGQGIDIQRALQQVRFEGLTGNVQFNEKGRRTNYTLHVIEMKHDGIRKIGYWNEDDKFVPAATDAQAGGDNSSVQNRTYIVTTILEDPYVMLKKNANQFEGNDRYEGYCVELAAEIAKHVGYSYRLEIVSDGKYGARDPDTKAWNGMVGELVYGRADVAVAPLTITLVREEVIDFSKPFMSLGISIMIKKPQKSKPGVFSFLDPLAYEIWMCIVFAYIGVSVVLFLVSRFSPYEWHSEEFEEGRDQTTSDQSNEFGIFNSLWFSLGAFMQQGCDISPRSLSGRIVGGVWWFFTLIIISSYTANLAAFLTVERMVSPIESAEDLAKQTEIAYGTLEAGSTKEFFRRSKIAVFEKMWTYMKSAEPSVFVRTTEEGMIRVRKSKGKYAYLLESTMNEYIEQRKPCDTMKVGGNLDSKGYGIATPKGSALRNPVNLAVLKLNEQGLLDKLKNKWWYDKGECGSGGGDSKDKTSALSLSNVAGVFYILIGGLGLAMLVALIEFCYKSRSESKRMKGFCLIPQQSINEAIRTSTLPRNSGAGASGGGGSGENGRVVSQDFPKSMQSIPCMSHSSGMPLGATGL

Row | Compound | EC50 [nM]
1 | N[C@@H](Cn1cc(I)c(=O)[nH]c1=O)C(=O)O | 19200

Molecular target: Glutamate receptor ionotropic, kainate 3 (Rattus norvegicus, UniProt P42264)
Test: Potency on Ionotropic glutamate receptor kainate in dorsal root ganglion cells
Type: functional, cell-based

Chain of Glutamate receptor ionotropic, kainate 3 (P42264 whole entry): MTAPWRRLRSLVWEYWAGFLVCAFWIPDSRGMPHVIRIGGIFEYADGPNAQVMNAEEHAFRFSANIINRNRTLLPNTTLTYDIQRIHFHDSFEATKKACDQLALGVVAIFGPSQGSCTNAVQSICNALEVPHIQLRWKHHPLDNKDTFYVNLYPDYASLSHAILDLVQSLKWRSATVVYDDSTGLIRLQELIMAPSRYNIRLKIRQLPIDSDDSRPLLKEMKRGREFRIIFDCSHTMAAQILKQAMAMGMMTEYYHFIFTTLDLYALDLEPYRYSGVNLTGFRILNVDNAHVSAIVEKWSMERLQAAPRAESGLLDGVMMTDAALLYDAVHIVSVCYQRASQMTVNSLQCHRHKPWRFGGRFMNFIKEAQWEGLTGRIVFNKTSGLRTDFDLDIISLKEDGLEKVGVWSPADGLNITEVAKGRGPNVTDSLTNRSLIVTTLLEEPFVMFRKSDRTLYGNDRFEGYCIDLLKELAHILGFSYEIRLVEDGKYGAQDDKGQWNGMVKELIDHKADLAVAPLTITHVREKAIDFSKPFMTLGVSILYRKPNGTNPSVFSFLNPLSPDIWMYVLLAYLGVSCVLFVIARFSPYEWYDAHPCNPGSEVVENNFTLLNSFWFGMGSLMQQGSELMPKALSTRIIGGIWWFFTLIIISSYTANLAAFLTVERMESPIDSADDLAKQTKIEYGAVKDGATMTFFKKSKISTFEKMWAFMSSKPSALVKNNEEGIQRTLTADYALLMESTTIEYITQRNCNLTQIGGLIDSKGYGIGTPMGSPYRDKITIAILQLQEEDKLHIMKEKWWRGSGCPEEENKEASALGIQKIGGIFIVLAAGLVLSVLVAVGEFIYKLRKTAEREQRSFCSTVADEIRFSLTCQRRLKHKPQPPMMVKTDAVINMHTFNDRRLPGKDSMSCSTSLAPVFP

Row | Compound | EC50 [nM]
2 | N[C@@H](Cn1cc(I)c(=O)[nH]c1=O)C(=O)O | 140

Molecular target: Glutamate receptor 2 (Homo sapiens, UniProt P42262)
Test: biochemical

Chain of Glutamate receptor 2 (P42262 whole entry): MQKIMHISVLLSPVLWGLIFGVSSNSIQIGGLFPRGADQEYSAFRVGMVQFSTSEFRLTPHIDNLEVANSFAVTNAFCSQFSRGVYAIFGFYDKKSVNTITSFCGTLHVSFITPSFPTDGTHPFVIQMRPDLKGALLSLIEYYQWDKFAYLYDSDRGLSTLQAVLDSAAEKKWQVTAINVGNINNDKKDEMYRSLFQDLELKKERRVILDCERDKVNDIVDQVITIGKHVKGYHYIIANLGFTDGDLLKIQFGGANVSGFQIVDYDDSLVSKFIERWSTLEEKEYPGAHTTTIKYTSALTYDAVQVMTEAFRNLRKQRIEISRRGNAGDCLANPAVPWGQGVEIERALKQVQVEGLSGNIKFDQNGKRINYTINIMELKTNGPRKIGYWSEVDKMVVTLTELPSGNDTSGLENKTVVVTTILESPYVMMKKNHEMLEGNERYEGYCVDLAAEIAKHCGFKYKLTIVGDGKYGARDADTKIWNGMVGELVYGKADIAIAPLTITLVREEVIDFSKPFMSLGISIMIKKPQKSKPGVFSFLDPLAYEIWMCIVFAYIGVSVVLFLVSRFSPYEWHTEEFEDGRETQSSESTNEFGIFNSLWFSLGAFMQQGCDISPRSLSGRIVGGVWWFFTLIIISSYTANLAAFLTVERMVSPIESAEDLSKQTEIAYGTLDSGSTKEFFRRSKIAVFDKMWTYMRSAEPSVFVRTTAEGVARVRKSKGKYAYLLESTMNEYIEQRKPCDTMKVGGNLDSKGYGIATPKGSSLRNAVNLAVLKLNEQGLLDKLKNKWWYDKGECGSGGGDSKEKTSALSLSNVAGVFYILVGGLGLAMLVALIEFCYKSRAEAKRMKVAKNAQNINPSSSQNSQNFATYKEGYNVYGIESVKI

Row | Ki [nM] | Compound
3 | 372 | Cc1nn(C[C@H](N)C(=O)O)c(=O)[nH]c1=O
4 | 19.3 | N[C@@H](Cn1nc(Br)c(=O)[nH]c1=O)C(=O)O
5 | 461 | N[C@@H](Cn1ncc(=O)[nH]c1=O)C(=O)O
6 | 101 | N[C@@H](Cn1nc(I)c(=O)[nH]c1=O)C(=O)O

Row | Compound | Ki [nM]
7 | N[C@@H](Cn1nc(Cl)c(=O)[nH]c1=O)C(=O)O | 16.7

Molecular target: Glutamate receptor 4 (Homo sapiens, UniProt P48058)
Test: biochemical

Chain of Glutamate receptor 4 (P48058 whole entry): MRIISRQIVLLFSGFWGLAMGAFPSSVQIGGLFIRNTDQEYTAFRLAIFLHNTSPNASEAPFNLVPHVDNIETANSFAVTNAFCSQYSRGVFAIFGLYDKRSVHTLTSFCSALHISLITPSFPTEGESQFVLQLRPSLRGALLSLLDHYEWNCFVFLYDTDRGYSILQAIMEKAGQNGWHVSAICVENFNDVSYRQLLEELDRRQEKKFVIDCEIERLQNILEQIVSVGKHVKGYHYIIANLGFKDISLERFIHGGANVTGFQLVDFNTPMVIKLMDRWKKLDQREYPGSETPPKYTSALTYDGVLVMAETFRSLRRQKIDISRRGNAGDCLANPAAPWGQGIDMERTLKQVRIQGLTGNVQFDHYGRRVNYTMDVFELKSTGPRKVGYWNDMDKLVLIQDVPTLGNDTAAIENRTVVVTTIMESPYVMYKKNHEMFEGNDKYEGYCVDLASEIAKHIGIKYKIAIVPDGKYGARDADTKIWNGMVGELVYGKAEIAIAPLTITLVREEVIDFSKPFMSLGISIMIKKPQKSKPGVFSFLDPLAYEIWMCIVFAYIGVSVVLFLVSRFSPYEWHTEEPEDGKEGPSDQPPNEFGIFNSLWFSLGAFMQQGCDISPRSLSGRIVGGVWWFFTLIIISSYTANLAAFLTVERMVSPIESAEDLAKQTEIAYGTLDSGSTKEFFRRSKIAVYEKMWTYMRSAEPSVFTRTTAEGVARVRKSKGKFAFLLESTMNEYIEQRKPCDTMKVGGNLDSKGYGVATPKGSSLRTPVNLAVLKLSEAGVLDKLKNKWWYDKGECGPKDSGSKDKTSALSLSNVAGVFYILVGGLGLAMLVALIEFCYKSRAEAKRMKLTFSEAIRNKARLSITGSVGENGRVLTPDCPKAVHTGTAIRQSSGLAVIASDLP

Row | Compound | Ki [nM]
8 | Cc1nn(C[C@H](N)C(=O)O)c(=O)[nH]c1=O | 89
9 | N[C@@H](Cn1cc(I)c(=O)[nH]c1=O)C(=O)O | 972
10 | N[C@@H](Cn1cc(Br)c(=O)[nH]c1=O)C(=O)O | 457
11 | N[C@@H](Cn1nc(Br)c(=O)[nH]c1=O)C(=O)O | 7.9
12 | N[C@@H](Cn1nc(Cl)c(=O)[nH]c1=O)C(=O)O | 3.6
13 | N[C@@H](Cn1cc([N+](=O)[O-])c(=O)[nH]c1=O)C(=O)O | 207
14 | N[C@@H](Cn1ncc(=O)[nH]c1=O)C(=O)O | 189
15 | N[C@@H](Cn1cc(Cl)c(=O)[nH]c1=O)C(=O)O | 451
16 | N[C@@H](Cn1cc(F)c(=O)[nH]c1=O)C(=O)O | 305
17 | N[C@@H](Cn1nc(I)c(=O)[nH]c1=O)C(=O)O | 19.9
18 | N[C@@H](Cn1ccc(=O)[nH]c1=O)C(=O)O [(S)-WILLARDIINE] | 8850

Molecular target: Glutamate receptor 1 (Homo sapiens, UniProt P42261)
Test: biochemical

Chain of Glutamate receptor 1 (Homo sapiens, UniProt P42261) (P42261 whole entry): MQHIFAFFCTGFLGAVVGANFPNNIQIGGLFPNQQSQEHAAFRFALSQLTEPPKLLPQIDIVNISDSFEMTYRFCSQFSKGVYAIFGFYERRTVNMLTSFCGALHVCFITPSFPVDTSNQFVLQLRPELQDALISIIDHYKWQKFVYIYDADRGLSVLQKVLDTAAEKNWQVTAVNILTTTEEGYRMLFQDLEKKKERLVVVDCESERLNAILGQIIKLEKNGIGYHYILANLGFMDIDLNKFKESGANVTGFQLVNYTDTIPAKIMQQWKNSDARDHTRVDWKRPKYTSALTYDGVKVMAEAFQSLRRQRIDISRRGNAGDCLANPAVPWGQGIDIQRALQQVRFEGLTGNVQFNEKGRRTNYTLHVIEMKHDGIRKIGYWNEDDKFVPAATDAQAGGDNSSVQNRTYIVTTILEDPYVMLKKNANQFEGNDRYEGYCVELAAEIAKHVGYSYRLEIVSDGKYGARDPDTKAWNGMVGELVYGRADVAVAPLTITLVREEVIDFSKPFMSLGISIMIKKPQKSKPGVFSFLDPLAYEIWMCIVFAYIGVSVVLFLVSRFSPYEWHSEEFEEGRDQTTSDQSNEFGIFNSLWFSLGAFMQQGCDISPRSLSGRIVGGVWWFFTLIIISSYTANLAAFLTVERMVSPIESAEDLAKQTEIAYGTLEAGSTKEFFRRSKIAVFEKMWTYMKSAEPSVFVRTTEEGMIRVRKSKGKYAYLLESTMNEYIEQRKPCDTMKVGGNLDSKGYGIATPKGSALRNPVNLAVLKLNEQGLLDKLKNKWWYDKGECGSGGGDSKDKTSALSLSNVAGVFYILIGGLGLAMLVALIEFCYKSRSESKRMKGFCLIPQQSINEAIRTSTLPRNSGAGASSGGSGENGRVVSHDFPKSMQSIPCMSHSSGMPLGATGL

Row | Compound | Ki [nM]
19 | Cc1nn(C[C@H](N)C(=O)O)c(=O)[nH]c1=O | 240
20 | N[C@@H](Cn1cc(I)c(=O)[nH]c1=O)C(=O)O | 163
21 | N[C@@H](Cn1cc(Br)c(=O)[nH]c1=O)C(=O)O | 92
22 | N[C@@H](Cn1nc(Br)c(=O)[nH]c1=O)C(=O)O | 29
23 | N[C@@H](Cn1nc(Cl)c(=O)[nH]c1=O)C(=O)O | 7.1
24 | N[C@@H](Cn1cc([N+](=O)[O-])c(=O)[nH]c1=O)C(=O)O | 279
25 | N[C@@H](Cn1ncc(=O)[nH]c1=O)C(=O)O | 163
26 | N[C@@H](Cn1cc(Cl)c(=O)[nH]c1=O)C(=O)O | 65
27 | N[C@@H](Cn1cc(F)c(=O)[nH]c1=O)C(=O)O | 14.7
28 | N[C@@H](Cn1nc(I)c(=O)[nH]c1=O)C(=O)O | 73.9
29 | N[C@@H](Cn1ccc(=O)[nH]c1=O)C(=O)O [(S)-WILLARDIINE] | 386
